Test results taken from article PMC6304418, “A Novel Compound Targeting Protease Receptor 1 Activators for the Treatment of Glioblastoma” (Frontiers in Neurology, 2018).
Where a SMILES comes first, the peptide text is derived from it. The star is where a group is joined. Tos = Cc1ccc(S(=O)(=O)*)cc1; CH2Cl = ClC*

How the values were obtained:
CNS-1 colonies = assay: Colony formation assay; assay type: cell-based, rat; conditions: SIXAC 1 μM, 5 days; colonies > 1 mm; control 13.9 ± 1.09; p = 0.033
Method: The cells were seeded in 6-well plates at a density of 100 cells/well. After 24 h, fresh medium with 1 μM SIXAC was added. Cells were incubated for 5 days, until colonies were formed. Cells were washed with PBS, stained with […] crystal violet (Sigma-Aldrich, C0075) in absolute ethanol for 20 min and then washed again with PBS and dried for 24 h. Colonies that were bigger than 1 mm were counted using Fiji software ([37]–[40]).

U87 glioma cells = assay: U87 glioma cell proliferation (XTT); assay type: cell-based, human; conditions: 72 h
Method: CNS-1, C6, and U87 rat and human glioma cells were grown in Dulbecco's modified Eagle's medium (DMEM; Bet Haemek, Biological Industries, Israel) supplemented with 10% fetal bovine serum (Bet Haemek, Biological Industries, Israel) and 1% penicillin and streptomycin in a 5% CO2-humidified atmosphere.
Cell proliferation was evaluated using a 2.3-Bis-(2-methoxy-4-nitro-5-sulfophenyl)-2H-tetrazolium-5-carboxyanilide salt (XTT)-based cell proliferation assay kit (Bet Haemek, Biological Industries, Israel). U87 cells were seeded in 96-well plates (5 × 10^3 cells/well) and incubated for 24 h. The medium was then removed, the tested molecules (10^−13-10^−4 M final concentration) were added in FCS-free medium and introduced to the cells for 72 h. After choosing SIXAC as the leading molecule, it was tested in a similar way in CNS-1 cells (SIXAC 1 μM final concentration). XTT solution (50 μl) was added to each well and incubated for 3 h at 37°C. The optical density (OD) of each well was recorded at 450 and 630 nm in a microplate reader (Infinite M200, Tecan, Durham, NC, USA). Cell viability was expressed as the percentage (ODtest–ODblank)/(ODcontrol–ODblank), where ODtest is the optical density of cells exposed to SIXAC treatment, ODcontrol is the optical density of the control sample, and ODblank is the optical density of wells without glioma cells.

Cc1ccc(S(=O)(=O)N[C@@H](C)C(=O)N[C@H](C(=O)N[C@@H](CC(C)C)C(=O)N[C@@H](CC(=O)O)C(=O)N2CCC[C@H]2C(=O)N[C@@H](CCCNC(=N)N)C(=O)CCl)[C@@H](C)O)cc1 [SIXAC] (Tos-ATLDPR-CH2Cl)
number of formed colonies (CNS-1 colonies): 10.5 ± 1.06
U87 proliferation rate ("inhibit proliferation at a rate of") (U87 glioma cells; 10^−5M, FCS-free medium, mean ± SEM, 3AACK vs. 6AACK p < 0.035): 0.2 ± 0.34
U87 proliferation inhibition, ranking among the molecules (U87 glioma cells; 10^−13-10^−4 M, Figure 1D): found to inhibit the U87 proliferation rate the most
